SMILES strings stand for the structures.

Test [1] deals with Kappa-type opioid receptor (Cavia porcellus, UniProt P41144). Kind of test: Inhibitory activity against kappa-opioid receptor in guinea pig ileum longitudinal muscle using ethylketazocine. The class given is tissue-based.
Test [2] concerns the target Opioid receptors; mu & kappa (Homo sapiens) (UniProt P41145+P35372). The test is described as follows: Selectivity ratio between kappa-opioid receptor to mu-opioid receptor. The test is classed as protein assay.
Test [3] deals with Delta-type opioid receptor (Mus musculus, UniProt P32300). Kind of test: Inhibitory activity against delta-opioid receptor in mouse vas deferens preparation using DADLE.
For test [4], the target named is Opioid receptors; delta & kappa (Homo sapiens) (UniProt P41145+P41143). Kind of test: Selectivity ratio between kappa-opioid receptor to delta-opioid receptor. The test is classed as protein assay.
Test [5] concerns the target Mu-type opioid receptor (Cavia porcellus, UniProt P97266). Kind of test: Inhibitory activity against mu-opioid receptor in guinea pig ileum longitudinal muscle using morphine. The class given is tissue-based.

Chain of Kappa-type opioid receptor (P41144 whole entry): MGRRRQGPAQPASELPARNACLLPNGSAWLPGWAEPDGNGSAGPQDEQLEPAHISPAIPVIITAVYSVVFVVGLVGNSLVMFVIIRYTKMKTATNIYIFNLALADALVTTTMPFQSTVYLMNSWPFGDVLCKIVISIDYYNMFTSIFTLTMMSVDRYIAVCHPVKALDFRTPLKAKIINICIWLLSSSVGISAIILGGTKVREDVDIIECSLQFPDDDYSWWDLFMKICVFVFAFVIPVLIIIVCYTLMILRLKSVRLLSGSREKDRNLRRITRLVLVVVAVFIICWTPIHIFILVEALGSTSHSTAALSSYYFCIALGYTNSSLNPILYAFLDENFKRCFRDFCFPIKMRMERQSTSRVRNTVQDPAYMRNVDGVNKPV
Chain of Mu-type opioid receptor (P97266 whole entry): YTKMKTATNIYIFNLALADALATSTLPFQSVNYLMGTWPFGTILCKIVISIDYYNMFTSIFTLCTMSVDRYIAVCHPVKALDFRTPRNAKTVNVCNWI
Chain of Opioid receptors; delta & kappa (Homo sapiens) (P41143 whole entry, looked up): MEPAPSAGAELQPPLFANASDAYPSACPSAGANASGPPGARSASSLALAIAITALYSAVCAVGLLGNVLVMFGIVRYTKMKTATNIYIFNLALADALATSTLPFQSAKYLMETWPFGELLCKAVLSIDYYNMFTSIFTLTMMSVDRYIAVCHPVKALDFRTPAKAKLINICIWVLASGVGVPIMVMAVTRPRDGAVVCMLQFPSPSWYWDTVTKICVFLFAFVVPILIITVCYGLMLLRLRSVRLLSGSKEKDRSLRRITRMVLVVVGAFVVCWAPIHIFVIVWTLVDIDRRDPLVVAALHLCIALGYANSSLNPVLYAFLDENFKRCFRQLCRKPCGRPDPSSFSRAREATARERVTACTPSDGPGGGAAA
Chain of Opioid receptors; delta & kappa (Homo sapiens) (P41145 whole entry, looked up): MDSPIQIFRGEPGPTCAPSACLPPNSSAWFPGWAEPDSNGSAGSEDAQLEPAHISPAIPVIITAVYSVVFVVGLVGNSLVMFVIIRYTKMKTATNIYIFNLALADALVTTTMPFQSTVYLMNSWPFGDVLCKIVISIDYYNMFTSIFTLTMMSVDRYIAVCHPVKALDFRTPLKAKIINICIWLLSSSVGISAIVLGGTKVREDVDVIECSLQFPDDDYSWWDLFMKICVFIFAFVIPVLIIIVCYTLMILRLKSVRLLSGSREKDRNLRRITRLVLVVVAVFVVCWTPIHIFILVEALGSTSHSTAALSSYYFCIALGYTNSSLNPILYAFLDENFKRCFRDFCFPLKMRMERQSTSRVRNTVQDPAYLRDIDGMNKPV
Chain of Opioid receptors; mu & kappa (Homo sapiens) (P35372 whole entry, looked up): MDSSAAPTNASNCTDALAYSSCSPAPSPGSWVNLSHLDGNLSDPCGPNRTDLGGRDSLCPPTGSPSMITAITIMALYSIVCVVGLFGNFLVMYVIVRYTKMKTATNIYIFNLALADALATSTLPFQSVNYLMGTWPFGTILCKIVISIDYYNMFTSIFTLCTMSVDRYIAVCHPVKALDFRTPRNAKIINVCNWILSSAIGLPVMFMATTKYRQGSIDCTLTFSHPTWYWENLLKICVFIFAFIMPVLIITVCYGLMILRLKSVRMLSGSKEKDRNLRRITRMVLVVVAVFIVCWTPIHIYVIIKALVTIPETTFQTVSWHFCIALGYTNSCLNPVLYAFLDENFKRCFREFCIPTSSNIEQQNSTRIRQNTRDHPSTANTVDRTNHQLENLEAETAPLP
Chain of Opioid receptors; mu & kappa (Homo sapiens) (P41145 whole entry, looked up): as the sequence (P41145 whole entry, looked up) above
Chain of Delta-type opioid receptor (P32300 whole entry): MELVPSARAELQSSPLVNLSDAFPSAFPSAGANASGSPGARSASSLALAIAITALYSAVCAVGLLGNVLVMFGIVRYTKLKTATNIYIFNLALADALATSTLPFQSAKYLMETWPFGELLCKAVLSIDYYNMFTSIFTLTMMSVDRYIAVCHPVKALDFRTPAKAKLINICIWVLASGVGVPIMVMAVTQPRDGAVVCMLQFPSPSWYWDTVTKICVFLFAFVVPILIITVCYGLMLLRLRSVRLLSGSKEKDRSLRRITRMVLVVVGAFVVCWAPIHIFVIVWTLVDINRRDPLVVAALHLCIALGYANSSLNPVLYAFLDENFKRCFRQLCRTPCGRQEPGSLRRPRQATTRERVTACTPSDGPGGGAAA

Broadly, the IC50 is the point on the concentration scale where inhibition reaches its midpoint. In the case of `Cn1c2c(c3c1[C@@H]1Oc4c(O)ccc5c4[C@@]14CCN(CC1CC1)[C@H](C5)[C@]4(O)C3)C[C@H]1CN(C(=O)OCc3ccccc3)CC[C@@H]1C2`, the IC50 was 1.6 nM in test [1], 9.2 nM in test [3] and 1.7 nM in test [5]. The Ratio stood at 0.9 in test [2] and 0.2 in test [4].

Take `Cn1c2c(c3c1[C@@H]1Oc4c(O)ccc5c4[C@@]14CCN(CC1CC1)[C@H](C5)[C@]4(O)C3)C[C@H]1CNCC[C@@H]1C2`: the IC50 is 40 nM in test [1], 1.1 nM in test [3] and 1 nM in test [5]. Also, the Ratio in test [2] was found to be 40; in test [4], 36.

For `Oc1ccc2c3c1O[C@H]1c4[nH]c5c(c4C[C@@]4(O)[C@@H](C2)N(CC2CC2)CC[C@]314)C[C@@]1(O)[C@H]2Cc3ccc(O)c4c3[C@@]1(CCN2CC1CC1)[C@H]5O4` [NORBINALTORPHIMINE], the 50% inhibitory concentration (IC50) in test [1] turned out to be 181 nM; in test [5], 8.3 nM. The values for the Ratio in test [2] and in test [4] were 22 and 17, respectively.

Source of the values: ChEMBL document CHEMBL1126769, “Synthesis and kappa-opioid antagonist selectivity of a norbinaltorphimine congener. Identification of the address moiety required for kappa-antagonist activity” (J Med Chem, 1993).
